Experimental data: article PMC8359942, “Native Mass Spectrometry for the Study of PROTAC GNE‐987‐Containing Ternary Complexes” (Chemmedchem, 2021)

Legend:
[1] = target: T1, Von Hippel‐Lindau (VHL) E3‐Ubiquitin Ligase, as VCB complex (Homo sapiens, UniProt P40337); test: native nESI-FT-ICR mass spectrometry, binary binding; also ternary complex with Brd4 B1 or B2
T1 construct: VHL complexed with Elongins B and C (VCB); with Elongin B and Elongin C

[2] = target: T2, Brd4 bromodomain 1 (Brd4^B1) (Homo sapiens, UniProt O60885); test: native nESI-FT-ICR mass spectrometry, binary binding; also […] ternary complex with VCB (maximum ratio […] at […])
T2 construct: bromodomain 1 (avi-tagged, partly biotinylated)

[3] = target: T3, Brd4 bromodomain 2 (Brd4^B2) (Homo sapiens, UniProt O60885); test: native nESI-FT-ICR mass spectrometry, binary binding; also […] ternary complex with VCB (maximum ratio […])
T3 construct: bromodomain 2

T1 sequence (P40337 whole entry): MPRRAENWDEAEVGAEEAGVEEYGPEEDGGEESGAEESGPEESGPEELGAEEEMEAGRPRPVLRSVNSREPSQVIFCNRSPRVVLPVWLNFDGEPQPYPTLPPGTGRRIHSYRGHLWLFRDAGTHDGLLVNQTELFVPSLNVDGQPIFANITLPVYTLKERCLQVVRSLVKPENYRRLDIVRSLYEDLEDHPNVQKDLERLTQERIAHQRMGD
T1 sequence (Q15370 whole entry partner): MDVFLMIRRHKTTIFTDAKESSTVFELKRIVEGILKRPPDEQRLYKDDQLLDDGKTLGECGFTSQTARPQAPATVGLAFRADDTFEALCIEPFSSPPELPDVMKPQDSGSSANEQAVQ
T1 sequence (Q15369 whole entry partner): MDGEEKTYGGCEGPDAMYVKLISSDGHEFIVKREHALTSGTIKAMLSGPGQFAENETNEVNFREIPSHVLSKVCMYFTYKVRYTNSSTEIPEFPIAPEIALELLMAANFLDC

% bound at 5 μM [1]: 57 % bound at 5 μM
% bound at 5 μM [2]: 40 % bound at 5 μM
% bound at 5 μM [3]: 45 % bound at 5 μM
Substance: GNE-987
